Patent US10568879B2 (GALAPAGOS NV, priority 2015, dated 2020)

Target: T1, GPR84 (Homo sapiens, UniProt Q9NQS5)
T1 construct: expressed in transfected cells
Experiment: GPR84 [35S]GTPγS binding assay
Format: biochemical
Conditions: 3,3′-diindolylmethane at EC80; membranes from stable cell line over expressing GPR84
Experimental: The following assay can be used for determination of GPR84 activation. The [^35S]GTPγS binding assay measures the level of G protein activation following agonist occupation of a GPCR, by determining the binding of the non-hydrolysable analog [^35S]GTPγS to Gα subunits.
The assay is performed in a 96-well plate where the following reagents are added. First 50 μL compound is added into the assay plate, followed by addition of 20 μL 3,3′-diindolylmethane at EC80 concentration (concentration which gives 80% of the activity of GPR84). Then, 30 μL of a mixture consisting of membranes-GTPγS-SpA beads is added [mixture consists of 20 μg/well membranes derived from stable cell line over expressing GPR84 (membranes are pre-incubated with 0.1 μM GDP for 15 min at 4° C.), 0.1 nM [^35S]GTPγS (Perkin Elmer, NEG030) and 0.5 mg/well PVT-WGA SpA beads (Perkin Elmer, RPNQ0001)]. All components are diluted in assay buffer containing 20 mM Tris pH 7.5; 5 mM MgCl2; 250 mM NaCl; 0.05% BSA; 75 μg/mL saponin. After an incubation of 90 min at room temperature, 20 μL CsCl2 0.8 M (MP Biomedicals, 02150589) is added, followed by centrifugation at 2000 rpm during 20 min. Plates are read on a topcount reader (perkin elmer) immediately after centrifugation (readout time, 1 min/well).

T1 sequence (Q9NQS5 whole entry): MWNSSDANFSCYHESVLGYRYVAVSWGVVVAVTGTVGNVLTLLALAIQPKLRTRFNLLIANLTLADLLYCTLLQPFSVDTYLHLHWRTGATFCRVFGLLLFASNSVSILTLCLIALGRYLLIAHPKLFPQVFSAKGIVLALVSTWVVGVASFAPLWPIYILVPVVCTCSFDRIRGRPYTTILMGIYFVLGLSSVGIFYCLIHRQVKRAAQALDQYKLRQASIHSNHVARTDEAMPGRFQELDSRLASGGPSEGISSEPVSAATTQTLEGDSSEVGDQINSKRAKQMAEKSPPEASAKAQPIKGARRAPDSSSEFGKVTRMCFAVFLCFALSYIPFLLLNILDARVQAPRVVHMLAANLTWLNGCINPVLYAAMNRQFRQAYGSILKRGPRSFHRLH

Row | IC50 [nM] | SMILES
1 | > 1000 | COc1cc2c(cc1OC)-c1c(C)c(=O)cc(NCC3CCCO3)n1CC2 (stereo not drawn) [Compound 2, 9,10-dimethoxy-1-methyl-4-(tetrahydrofuran-2-ylmethylamino)-6,7-dihydrobenzo[a]quinolizin-2-one]
2 | > 1000 | CCc1c2n(c(NCC3CCCO3)cc1=O)CCc1cc(O)ccc1-2 (stereo not drawn) [Compound 3, 1-ethyl-9-hydroxy-4-(tetrahydrofuran-2-ylmethylamino)-6,7-dihydrobenzo[a]quinolizin-2-one]
3 | > 1000 | COc1cc2c(cc1OC)-c1cc(=O)cc(NCC3COCCO3)n1CC2 (stereo not drawn) [Compound 5, 4-[([1,4]Dioxan-2-ylmethyl)-amino]-9,10-dimethoxy-6,7-dihydro-pyrido[2,1-a]isoquinolin-2-one]
4 | 0.01 to 100 | Cc1c2n(c(OCC3CCCO3)cc1=O)CCc1cc(OCC3CCCOC3)ccc1-2 (stereo not drawn) [Compound 47, 1-methyl-4-(tetrahydrofuran-2-ylmethoxy)-9-(tetrahydropyran-3-ylmethoxy)-6,7-dihydrobenzo[a]quinolizin-2-one]
5 | > 1000 | Cc1c2n(c(OCC3CCCO3)cc1=O)CCc1cc(OCCN(C)C)ccc1-2 (stereo not drawn) [Compound 53, 9-(2-dimethylaminoethyloxy)-1-methyl-4-(tetrahydrofuran-2-ylmethoxy)-6,7-dihydrobenzo[a]quinolizin-2-one]
6 | 500 to 1000 | Cc1c2n(c(OCC3CCCCO3)cc1=O)CCc1cc(OCCN(C)C)ccc1-2 (stereo not drawn) [Compound 54, 9-(2-dimethylaminoethyloxy)-1-methyl-4-(tetrahydropyran-2-ylmethoxy)-6,7-dihydrobenzo[a]quinolizin-2-one]
7 | 500 to 1000 | Cc1c2n(c(OC[C@@H]3COCCO3)cc1=O)CCc1cc(OCCN(C)C)ccc1-2 [Compound 55, 9-(2-dimethylaminoethyloxy)-4-[[(2S)-1,4-dioxan-2-yl]methoxy]-1-methyl-6,7-dihydrobenzo[a]quinolizin-2-one]
8 | 100 to 500 | Cc1c2n(c(OC[C@@H]3COCCO3)cc1=O)CCc1cc(OS(C)(=O)=O)ccc1-2 [Compound 56, [4-[[(2S)-1,4-dioxan-2-yl]methoxy]-1-methyl-2-oxo-6,7-dihydrobenzo[a]quinolizin-9-yl] methanesulfonate]
9 | 0.01 to 100 | Cc1c2n(c(OC[C@@H]3CCCO3)cc1=O)CCc1cc(OCc3ccccn3)ccc1-2 [Compound 57, 1-methyl-9-(2-pyridylmethoxy)-4-[[(2S)-tetrahydrofuran-2-yl]methoxy]-6,7-dihydrobenzo[a]quinolizin-2-one]
10 | 0.01 to 100 | Cc1c2n(c(OC[C@@H]3COCCO3)cc1=O)CCc1cc(OC(F)F)ccc1-2 [Compound 59, 9-(difluoromethoxy)-4-[[(2S)-1,4-dioxan-2-yl]methoxy]-1-methyl-6,7-dihydrobenzo[a]quinolizin-2-one]
11 | 0.01 to 100 | Cc1c2n(c(OC[C@@H]3COCCO3)cc1=O)CCc1cc(OC[C@@H]3COCCO3)ccc1-2 [Compound 62, 4,9-bis[[(2S)-1,4-dioxan-2-yl]methoxy]-1-methyl-6,7-dihydrobenzo[a]quinolizin-2-one]
12 | 0.01 to 100 | Cc1c2n(c(OC[C@@H]3COCCO3)cc1=O)CCc1cc(Sc3ccccc3)ccc1-2 [Compound 64, 4-[[(2S)-1,4-dioxan-2-yl]methoxy]-1-methyl-9-phenylsulfanyl-6,7-dihydrobenzo[a]quinolizin-2-one]
13 | > 1000 | Cc1c2n(c(OC[C@@H]3COCCO3)cc1=O)CCc1cc(N3CCNCC3)ccc1-2 [Compound 66, 4-[[(2S)-1,4-dioxan-2-yl]methoxy]-1-methyl-9-piperazin-1-yl-6,7-dihydrobenzo[a]quinolizin-2-one]
14 | 100 to 500 | Cc1c2n(c(OC[C@@H]3COCCO3)cc1=O)CCc1cc(S(=O)(=O)c3ccccc3)ccc1-2 [Compound 67, 9-(benzenesulfonyl)-4-[[(2S)-1,4-dioxan-2-yl]methoxy]-1-methyl-6,7-dihydrobenzo[a]quinolizin-2-one]
15 | 0.01 to 100 | Cc1c2n(c(OC[C@@H]3COCCO3)cc1=O)CCc1cc(N3CCN(S(C)(=O)=O)CC3)ccc1-2 [Compound 68]
16 | 100 to 500 | Cc1c2n(c(OC[C@@H]3COCCO3)cc1=O)CCc1cc(N(C)C(=O)C3CC3)ccc1-2 [Compound 73, N-[4-[[(2S)-1,4-dioxan-2-yl]methoxy]-1-methyl-2-oxo-6,7-dihydrobenzo[a]quinolizin-9-yl]-N-methyl-cyclopropanecarboxamide]
17 | 0.01 to 100 | Cc1c2n(c(OC[C@@H]3COCCO3)cc1=O)CCc1cc(C3=CCN(C(=O)OC(C)(C)C)CC3)ccc1-2 [Compound 74, tert-butyl 4-[4-[[(2S)-1,4-dioxan-2-yl]methoxy]-1-methyl-2-oxo-6,7-dihydrobenzo[a]qunolizin-9-yl]-3,6-dihydro-2H-pyridine-1-carboxylate]

Row | IC50 [nM] | SMILES
18 | 0.01 to 100 | Cc1c2n(c(OC[C@@H]3COCCO3)cc1=O)CCc1cc(C3CCN(C(=O)OC(C)(C)C)CC3)ccc1-2 [Compound 75, tert-butyl 4-[4-[[(2S)-1,4-dioxan-2-yl]methoxy]-1-methyl-2-oxo-6,7-dihydrobenzo[a]quinolizin-9-yl]piperidine-1-carboxylate]
19 | > 1000 | Cc1c2n(c(OC[C@@H]3COCCO3)cc1=O)CCc1cc(C(=O)NC3CC3)ccc1-2 [Compound 84, N-cyclopropyl-4-[[(2S)-1,4-dioxan-2-yl]methoxy]-1-methyl-2-oxo-6,7-dihydrobenzo[a]quinolizine-9-carboxamide]
20 | 100 to 500 | Cc1c2n(c(OC[C@@H]3COCCO3)cc1=O)CCc1cc(O)ccc1-2 [Compound 85, 4-[[(2S)-1,4-dioxan-2-yl]methoxy]-9-hydroxy-1-methyl-6,7-dihydrobenzo[a]quinolizin-2-one]
21 | 500 to 1000 | Cc1c2n(c(OC[C@@H]3COCCO3)cc1=O)CCc1cc(N3CC4(COC4)C3)ccc1-2 [Compound 87, 4-[[(2S)-1,4-dioxan-2-yl]methoxy]-1-methyl-9-(6-oxa-2-azaspiro[3.3]heptan-2-yl)-6,7-dihydrobenzo[a]quinolizin-2-one]
22 | > 1000 | Cc1c2n(c(OC[C@@H]3COCCO3)cc1=O)CCc1cc(C(=O)N(C)C3CC3)ccc1-2 [Compound 88, N-cyclopropyl-4-[[(2)S-1,4-dioxan-2-yl]methoxy]-N,1-dimethyl-2-oxo-6,7-dihydrobenzo[a]quinolizine-9-carboxamide]
23 | 0.01 to 100 | COc1ccc2c(c1)CCn1c(OC[C@@H]3COCCO3)cc(=O)c(C)c1-2 [Compound 89, 4-[[(2S)-1,4-dioxan-2-yl]methoxy]-9-methoxy-1-methyl-6,7-dihydrobenzo[a]quinolizin-2-one]
24 | 100 to 500 | Cc1c2n(c(OC[C@@H]3COCCO3)cc1=O)CCc1cc(N3CC(C(C)(C)O)C3)ccc1-2 [Compound 92, 4-[[(2S)-1,4-dioxan-2-yl]methoxy]-9-[3-(1-hydroxy-1-methyl-ethyl)azetidin-1-yl]-1-methyl-6,7-dihydrobenzo[a]quinolizin-2-one]
25 | 500 to 1000 | Cc1c2n(c(OC[C@@H]3COCCO3)cc1=O)CCc1cc(N3CC(S(C)(=O)=O)C3)ccc1-2 [Compound 94, 4-[[(2S)-1,4-dioxan-2-yl]methoxy]-1-methyl-9-(3-methylsulfonylazetidin-1-yl)-6,7-dihydrobenzo[a]quinolizin-2-one]
26 | 0.01 to 100 | Cc1c2n(c(OC[C@@H]3COCCO3)cc1=O)CCc1cc(N3CC(C)(C)C3)ccc1-2 [Compound 96, 9-(3,3-dimethylazetidin-1-yl)-4-[[(2S)-1,4-dioxan-2-yl]methoxy]-1-methyl-6,7-dihydrobenzo[a]quinolizin-2-one]
27 | 100 to 500 | COC(=O)C1CN(c2ccc3c(c2)CCn2c(OC[C@@H]4COCCO4)cc(=O)c(C)c2-3)C1 [Compound 97]
28 | 100 to 500 | Cc1c2n(c(OC[C@@H]3COCCO3)cc1=O)CCc1cc(-c3cccnc3)ccc1-2 [Compound 98, 4-[[(2S)-1,4-dioxan-2-yl]methoxy]-1-methyl-9-(3-pyridyl)-6,7-dihydrobenzo[a]quinolizin-2-one]
29 | 0.01 to 100 | Cc1c2n(c(OC[C@@H]3COCCO3)cc1=O)CCc1cc(-c3cccc(F)c3)ccc1-2 [Compound 99, 4-[[(2S)-1,4-dioxan-2-yl]methoxy]-9-(3-fluorophenyl)-1-methyl-6,7-dihydrobenzo[a]quinolizin-2-one]
30 | 0.01 to 100 | Cc1c2n(c(OC[C@@H]3COCCO3)cc1=O)CCc1cc(-c3ccncc3)ccc1-2 [Compound 100, 4-[[(2S)-1,4-dioxan-2-yl]methoxy]-1-methyl-9-(4-pyridyl)-6,7-dihydrobenzo[a]quinolizin-2-one]
31 | 0.01 to 100 | Cc1c2n(c(OC[C@@H]3COCCO3)cc1=O)CCc1cc(-c3ccccn3)ccc1-2 [Compound 101, 4-[[(2S)-1,4-dioxan-2-yl]methoxy]-1-methyl-9-(2-pyridyl)-6,7-dihydrobenzo[a]quinolizin-2-one]
32 | 0.01 to 100 | Cc1cccnc1-c1ccc2c(c1)CCn1c(OC[C@@H]3COCCO3)cc(=O)c(C)c1-2 [Compound 102, 4-[[(2S)-1,4-dioxan-2-yl]methoxy]-1-methyl-9-(3-methyl-2-pyridyl)-6,7-dihydrobenzo[a]quinolizin-2-one]
33 | 0.01 to 100 | Cc1ccnc(-c2ccc3c(c2)CCn2c(OC[C@@H]4COCCO4)cc(=O)c(C)c2-3)c1 [Compound 103, 4-[[(2S)-1,4-dioxan-2-yl]methoxy]-1-methyl-9-(4-methyl-2-pyridyl)-6,7-dihydrobenzo[a]quinolizin-2-one]
